Results published in ChEMBL document CHEMBL1142430, “Acremine G, dimeric metabolite from cultures of Acremonium byssoides A20” (J Nat Prod, 2008).

Experiments:
[1] = system: NCI-H460; test: Cytotoxicity against human H460 cells; assay type: functional, cell-based
[2] = system: Plasmopara viticola; test: Inhibition of germination of sporangia of Plasmopara viticola at 1 mM; assay type: functional

| SMILES | IC50 [1] [µM] | inhibition at 1000 µM [2] [%] |
| --- | --- | --- |
| CC(C)(O)/C=C/C1=CC(=O)[C@](C)(O)CC1=O [ACREMINE B] | 36 | 57.7 |
| CC(C)(O)/C=C/C1=CC(=O)[C@](C)(O)C[C@@H]1O [ACREMINE A] | > 100 | 58.2 |
| CC1=CC2c3cc(O)c(C)cc3OC3(C1)C(=O)C(C)=CC(=O)C23/C=C/C(C)(C)O (racemic) | 48 | 72.5 |
